Patent US4005194A, “Treatment of prostatic hyperplasia” (Abbott Laboratories, priority 1975, dated 1977)

How the values were obtained:
Sprague Dawley male rat = settings: in vivo
Experimental: Ten Sprague Dawley male rat 22 days of age and weighing 45-50 grams, were randomly divided into two groups. One group received the treatment described below. After 57 days of treatment, the animals from the non-treatment control group and those from the treatment group were sacrificed. The various organs were removed, trimmed of excess tissue and weighed. Body weights were taken weekly. Group I received no treatment; Group II received 10 μg of Compound N twice each day. The results are shown in Table I with each entry showing the mean value of the respective group.

Male rats [1] = settings: rat, in vivo
Experimental: In an experiment similar to that of Example 5 with Groups I and III being treated as shown, but Group II being treated like Group III except with only 1 μg of Compound N, the test was continued for 51 days, starting with 22-day old male rats, 5 animals per group. The animals were sacrificed on day 52. […] Another three groups of 5 male rats were treated in the identical fashion, but the treatment was extended from the age of 22 days to day 138 (116 days).

Male rats [2] = settings: rat, in vivo; remark: listed apart in the source
Experimental: Male rats, 22 days of age, were divided into 3 groups of five animals each. The 3 groups were treated exactly as described in Example 3, but the experiment was continued for 153 days. After 115 days, these animals were bred to untreated, cycling females (each male was caged with 2 cycling females in pro-estrus for 3 consecutive days, on 3-5 separate occasions).

Effect on normal weight gain and growth (Sprague Dawley male rat): essentially no effect
Breeding index (percentage of successful impregnations vs. opportunities to breed) (Male rats [2]): 23%
Course of resulting pregnancies (Male rats [2]): progressed normal
Number of pups (Male rats [2]): 10.4
Weight of pups on day 1 (Male rats [2]): 6.9 g
Weight of pups on day 4 (Male rats [2]): 11.7 g
Weight of pups on day 11 (Male rats [2]): 23.5 g
Weight of pups on day 21 (Male rats [2]): 44.3 g
SMILES: CCNC(=O)[C@@H]1CCCN1C(=O)[C@H](CCCNC(=N)N)NC(=O)[C@H](CC(C)C)NC(=O)[C@@H](CC(C)C)NC(=O)[C@H](Cc1ccc(O)cc1)NC(=O)[C@H](CO)NC(=O)[C@H](Cc1c[nH]c2ccccc12)NC(=O)[C@H](Cc1c[nH]cn1)NC(=O)[C@@H]1CCC(=O)N1 [Compound N]
Outward signs or organic changes over the control group (Male rats [1]): None of the treated animals in this experiment showed any outward signs or organic changes
